Results on 24 substances are retold here after patent US7071168B2, “Anti-cancer compounds and methods related thereto” (The Regents of the University of Colorado, priority 1998, dated 2006).

For one assay, the system named is SCLC strain SHP-77. The experiment in a line: Colorimetric tetrazolium (MTT) assay for cell survival, SCLC strain SHP-77. Type of assay: cell-based, human. Conditions: Table 1; SHP-77, MTT, 4 days. The essentials:
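MTT assay: cells seeded overnight, treated in triplicate across a concentration range for 4 days at 37 °C, 5% CO2. On day 5, MTT was added for 4 h; formazan was dissolved in acidified isopropanol and absorbance read.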

Assay [1] has as its system bradykinin response of isolated guinea pig ileum. The experiment in a line: Anti-bradykinin activity on isolated guinea pig ileum. To be noted: Table 1; higher numbers indicate higher potency. In a few lines:
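Bradykinin concentration-effect curves were run in the absence and presence of compound. Tissue: 25 mm terminal ileum from male Hartley guinea pigs fasted overnight, held at 1 g tension in O2/CO2-bubbled Krebs' solution after 1 h equilibration.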

On to DDD-(DArg-Arg-Aud-DTic-Oic-Arg)2 [M790], for which, in the assay with SCLC strain SHP-77, the “MTT: ED50 for killing of SCLC strain SHP-77 in vitro” value (“MTT: ED50 for killing” for short) was determined as 1.7 µM. For the same substance, the “GPI: pA2 for bradykinin antagonist activity on isolated guinea pig ileum” value (“GPI: pA2” below) in assay [1] was “Inact”.

As for “DDD-(DArg-Arg-Aud-DTic-hPhe-Arg)2 [M770]”, the “MTT: ED50 for killing” value with SCLC strain SHP-77 was found to be 8 µM. Moreover, the “GPI: pA2” value in assay [1] is given as “Inact”.

Take DDD-(DArg-Arg-Aud-PaF(F5c)-Arg)2 [M728]: the “MTT: ED50 for killing” value with SCLC strain SHP-77 stood at 4 µM. For the same substance, in assay [1], the “GPI: pA2” value is on record as 5.3.

Regarding “DDD-(DArg-Arg-Aud-Pac-PaF(Fbz)-Arg)2 [M734]”, in the assay with SCLC strain SHP-77, the “MTT: ED50 for killing” value came out at 1.8 µM. Further, in assay [1], the “GPI: pA2” value stood at 5.3.

As to “DDD-(DArg-Arg-Aud-Ser-DF5F-Oic-Arg)2 [M890]”, in the assay with SCLC strain SHP-77, the “MTT: ED50 for killing” value was 1.7 µM. In assay [1], the “GPI: pA2” value is listed as 5.5.

As to “DDD-(DArg-Arg-Aud-Ser-DIgl-Oic-Arg)2 [M858]”, the “MTT: ED50 for killing” value in the assay with SCLC strain SHP-77 is 4 µM. The “GPI: pA2” value in assay [1] is given as 6.3.

For “DDD-(DArg-Arg-Eac-Ser-DF5F-Oic-Arg)2 [M804]”, the “MTT: ED50 for killing” value with SCLC strain SHP-77 stood at 7.3 µM. Also, the “GPI: pA2” value in assay [1] was found to be 7.7.

For “DDD-(DArg-Arg-Eac-Ser-DIgl-Oic-Arg)2 [M854]”, the “MTT: ED50 for killing” value in the assay with SCLC strain SHP-77 stood at 7.3 µM. Also, the “GPI: pA2” value in assay [1] was 5.9.

As to “DDD-(DArg-Arg-Eac-Ser-DTic-Oic-Arg)2 [M794]”, the “MTT: ED50 for killing” value in the assay with SCLC strain SHP-77 was 21 µM. The “GPI: pA2” value in assay [1] is reported as “Inact”.

On to DDD-(DArg-F5F-DArg)2 [M1036], for which the “MTT: ED50 for killing” value in the assay on SCLC strain SHP-77 was 40 µM. In addition, the “GPI: pA2” value in assay [1] amounted to 5.4.

For DDD-(DArg-PFF-Arg)2 [M820], in the assay on SCLC strain SHP-77, the “MTT: ED50 for killing” value came to 43 µM. Further, the “GPI: pA2” value in assay [1] was “Inact”.

Turning to DDD-(DIgl-hPhe-Arg)2 [M776], the “MTT: ED50 for killing” value with SCLC strain SHP-77 stood at 30 µM. The “GPI: pA2” value in assay [1] was 5.

For the substance DDD-(DPhe-hPhe-Arg)2 [M756], the “MTT: ED50 for killing” value in the assay with SCLC strain SHP-77 came out at 18 µM. Besides, in assay [1], the “GPI: pA2” value was 5.2.

As to “DDD-(Eac-Eac-Arg-DIgl-Oic-Arg)2 [B10200]”, the “MTT: ED50 for killing” value in the assay on SCLC strain SHP-77 was 16 µM. Moreover, the “GPI: pA2” value in assay [1] worked out at 5.8.

In the case of DDD-(Lys-Ser-DF5F-Oic-Arg)2 [M808], the “MTT: ED50 for killing” value in the assay with SCLC strain SHP-77 stood at 30 µM. The “GPI: pA2” value in assay [1] was 6.9.

Take DDD-(Pac-2Nal-DArg-NH2)2 [M504]: the “MTT: ED50 for killing” value in the assay with SCLC strain SHP-77 stood at 11 µM. The “GPI: pA2” value in assay [1] is given as 5.4.

For the substance DDD-(Pac-hPhe-Arg)2 [M746], the “MTT: ED50 for killing” value in the assay on SCLC strain SHP-77 is “Inact”. In assay [1], the “GPI: pA2” value is listed as “Inact”.

In the case of DDD-(p-ABz-hPhe-Arg)2 [M552], the “MTT: ED50 for killing” value in the assay with SCLC strain SHP-77 was “Inact”. Besides, in assay [1], the “GPI: pA2” value is on record as “Inact”.

On to “DTP-(DArg-Arg-Eac-Ser-DF5F-Nc7G-Arg)2 [M1026]”, for which, in the assay on SCLC strain SHP-77, the “MTT: ED50 for killing” value is 70 µM. Further, the “GPI: pA2” value in assay [1] amounted to 6.9.

Take Dcg-F5F-Arg [M130]: the “MTT: ED50 for killing” value with SCLC strain SHP-77 came to 20 µM. Besides, the “GPI: pA2” value in assay [1] came out at 4.8.

On to Dpa-PFF-Arg [M816], for which the “MTT: ED50 for killing” value in the assay with SCLC strain SHP-77 worked out at 52 µM. For the same substance, in assay [1], the “GPI: pA2” value stood at 4.6.

In the case of “EGS-(DArg-Arg-Eac-Ser-DF5F-Nc7G-Arg)2 [M1030]”, the “MTT: ED50 for killing” value with SCLC strain SHP-77 amounted to 51 µM. Moreover, the “GPI: pA2” value in assay [1] was 7.0.

Consider “EGS-(DArg-Arg-Pro-Hyp-Gly-Igl-Ser-DIgl-Oic-Arg)2 [B10252]”, for which the “MTT: ED50 for killing” value in the assay on SCLC strain SHP-77 was 25 µM. In assay [1], the “GPI: pA2” value came out at 8.3.

As for “F5c-DArg-Arg-Add-Ser-DIgl-Oic-Arg [M860]”, the “MTT: ED50 for killing” value with SCLC strain SHP-77 turned out to be 6 µM. For the same substance, in assay [1], the “GPI: pA2” value is on record as 5.4.
